Measurements from PubChem BioAssay AID2060497 (Molecular Pharmacology Branch, DTP, NCI, 2025).

System: 317291-083-R-J1-PDC complex spheroids, viability
Assay: Anticancer human tumor 317291-083-R-J1-PDC patient-derived soft tissue sarcoma cell line growth inhibition [GQUAD]
Details: for IC50: curve of first compound; for viability, T/C: stronger effect = lower value
How it was run: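 Viability of tumor cells grown as complex spheroids with endothelial and stromal cells, exposed to drug combinations. Top concentration at or near clinical Cmax (else 10 microM), diluted in half-log increments.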

[1] = second compound 0.0316 µM, first compound 0.0316 µM
[2] = second compound 0.0316 µM, first compound 0.316 µM
[3] = second compound 0.1 µM, first compound 0.0316 µM
[4] = second compound 0.1 µM, first compound 0.316 µM
[5] = second compound 0.316 µM, first compound 0.0316 µM
[6] = second compound 0.316 µM, first compound 0.316 µM
[7] = second compound 1 µM, first compound 0.0316 µM
[8] = second compound 1 µM, first compound 0.316 µM
[9] = second compound 3.16 µM, first compound 0.0316 µM
[10] = second compound 3.16 µM, first compound 0.316 µM
[11] = second compound 10 µM, first compound 0.0316 µM
[12] = second compound 10 µM, first compound 0.316 µM
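Note: spheroids exposed to compounds for one week before readout.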
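Throughout, for viability, T/C: percent viability relative to DMSO vehicle wells taken as 100%.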

CC[C@@]1(O)C(=O)OCc2c1cc1n(c2=O)Cc2cc3c(CN(C)C)c(O)ccc3nc2-1 + Cc1[nH]c2ccc(F)cc2c1-c1nc2c3cccnc3c3ncccc3c2[nH]1
IC50 (second compound 0.0316 µM): 53.9 nM | IC50 (second compound 0.1 µM): 61.5 nM | IC50 (second compound 0.316 µM): 55.9 nM | IC50 (second compound 1 µM): 60.7 nM | IC50 (second compound 3.16 µM): 46.5 nM | IC50 (second compound 10 µM): 24.5 nM | viability, T/C (second compound 0.0316 µM, first compound 0.000999 µM): 97.6% | viability, T/C (second compound 0.0316 µM, first compound 0.00316 µM): 92% | viability, T/C (second compound 0.0316 µM, first compound 0.00999 µM): 83% | viability, T/C [1]: 72.3% | viability, T/C (second compound 0.0316 µM, first compound 0.0999 µM): 25% | viability, T/C [2]: 14.7% | viability, T/C (second compound 0.1 µM, first compound 0.000999 µM): 106% | viability, T/C (second compound 0.1 µM, first compound 0.00316 µM): 91.9% | viability, T/C (second compound 0.1 µM, first compound 0.00999 µM): 91.2% | viability, T/C [3]: 87.6% | viability, T/C (second compound 0.1 µM, first compound 0.0999 µM): 22.5% | viability, T/C [4]: 17.7% | viability, T/C (second compound 0.316 µM, first compound 0.000999 µM): 96.9% | viability, T/C (second compound 0.316 µM, first compound 0.00316 µM): 97.9% | viability, T/C (second compound 0.316 µM, first compound 0.00999 µM): 90.9% | viability, T/C [5]: 75.7% | viability, T/C (second compound 0.316 µM, first compound 0.0999 µM): 24.1% | viability, T/C [6]: 9.9% | viability, T/C (second compound 1 µM, first compound 0.000999 µM): 98.8% | viability, T/C (second compound 1 µM, first compound 0.00316 µM): 96.6% | viability, T/C (second compound 1 µM, first compound 0.00999 µM): 108% | viability, T/C [7]: 74.4% | viability, T/C (second compound 1 µM, first compound 0.0999 µM): 30.9% | viability, T/C [8]: 9.35% | viability, T/C (second compound 3.16 µM, first compound 0.000999 µM): 97.6% | viability, T/C (second compound 3.16 µM, first compound 0.00316 µM): 100% | viability, T/C (second compound 3.16 µM, first compound 0.00999 µM): 80.4% | viability, T/C [9]: 64.6% | viability, T/C (second compound 3.16 µM, first compound 0.0999 µM): 26.2% | viability, T/C [10]: 9.6% | viability, T/C (second compound 10 µM, first compound 0.000999 µM): 63.8% | viability, T/C (second compound 10 µM, first compound 0.00316 µM): 69.1% | viability, T/C (second compound 10 µM, first compound 0.00999 µM): 84% | viability, T/C [11]: 43.7% | viability, T/C (second compound 10 µM, first compound 0.0999 µM): 18.7% | viability, T/C [12]: 8.82%

COc1cc(C2c3cc4c(cc3C(OC3OC5COC(C)OC5C(O)C3O)C3COC(=O)C23)OCO4)cc(OC)c1O (centres undefined) + Cc1[nH]c2ccc(F)cc2c1-c1nc2c3cccnc3c3ncccc3c2[nH]1
IC50 (second compound 0.0316 µM): 432 nM | IC50 (second compound 0.1 µM): 276 nM | IC50 (second compound 0.316 µM): 260 nM | IC50 (second compound 1 µM): 260 nM | IC50 (second compound 3.16 µM): 192 nM | IC50 (second compound 10 µM): 222 nM | viability, T/C [1]: 103% | viability, T/C (second compound 0.0316 µM, first compound 0.1 µM): 93% | viability, T/C [2]: 59.5% | viability, T/C (second compound 0.0316 µM, first compound 1 µM): 25.2% | viability, T/C (second compound 0.0316 µM, first compound 3.16 µM): 17.9% | viability, T/C (second compound 0.0316 µM, first compound 10 µM): 16.5% | viability, T/C [3]: 96.2% | viability, T/C (second compound 0.1 µM, first compound 0.1 µM): 102% | viability, T/C [4]: 43.5% | viability, T/C (second compound 0.1 µM, first compound 1 µM): 28.3% | viability, T/C (second compound 0.1 µM, first compound 3.16 µM): 17.6% | viability, T/C (second compound 0.1 µM, first compound 10 µM): 9.83% | viability, T/C [5]: 113% | viability, T/C (second compound 0.316 µM, first compound 0.1 µM): 92.7% | viability, T/C [6]: 40.6% | viability, T/C (second compound 0.316 µM, first compound 1 µM): 22.5% | viability, T/C (second compound 0.316 µM, first compound 3.16 µM): 14.5% | viability, T/C (second compound 0.316 µM, first compound 10 µM): 18.4% | viability, T/C [7]: 84.7% | viability, T/C (second compound 1 µM, first compound 0.1 µM): 94.5% | viability, T/C [8]: 41.8% | viability, T/C (second compound 1 µM, first compound 1 µM): 20.2% | viability, T/C (second compound 1 µM, first compound 3.16 µM): 13.6% | viability, T/C (second compound 1 µM, first compound 10 µM): 13.2% | viability, T/C [9]: 80.8% | viability, T/C (second compound 3.16 µM, first compound 0.1 µM): 70% | viability, T/C [10]: 34.5% | viability, T/C (second compound 3.16 µM, first compound 1 µM): 16.7% | viability, T/C (second compound 3.16 µM, first compound 3.16 µM): 16.1% | viability, T/C (second compound 3.16 µM, first compound 10 µM): 10% | viability, T/C [11]: 73.1% | viability, T/C (second compound 10 µM, first compound 0.1 µM): 57.6% | viability, T/C [12]: 47.7% | viability, T/C (second compound 10 µM, first compound 1 µM): 17.7% | viability, T/C (second compound 10 µM, first compound 3.16 µM): 11.9% | viability, T/C (second compound 10 µM, first compound 10 µM): 16.9%
